Results on six compounds are retold here after patent publication US20110166348A1, “NOVEL SALT OF MORPHOLINE DERIVATIVE” (ASTELLAS PHARMA INC., priority 2008, published 2011).

For series [1] the following is noted: cited from earlier work.
Series [2] can be described thus: Evaluation of stability (residual ratio of compound A after storage, HPLC-UV). It is filed as physicochemical. The protocol:
Evaluation of the decomposed product during storage: Approximately 5 mg of a sample was metered into a 10 mL glass mass flask, and a test was carried out in the following storage conditions.
Condition 1: 40° C.—relative humidity 75%—opening—3 months
Condition 2: 70° C.—light shielding—sealing—2 weeks
Condition 3: 25° C.—D65 (1000 lux)—sealing—2 weeks
A dissolution solvent was filled to a marked line in a mess flask including the sample after storage, the dissolved solution was taken as a sample solution, and the compound A in the sample solution was quantified. Furthermore, the detection of the compound A was carried out with UV at 254 nm and the handling of the devices including data processing was conducted in accordance to the methods and procedures as indicated in each device. (Device: LC-1100 Series manufactured by Agilent).
Further, the quantitative value indicates the residual ratio of the compound A after the test to the compound A before the test.

The nature of series [3]: Evaluation of hygroscopicity (dynamic steam adsorption/desorption). It is filed as physicochemical. The protocol: Approximately 10 mg of a sample was placed in an exclusively-used quartz-made holder and measured under the conditions of a temperature: 25° C., a measurement range: relative humidity 5 to 95%, a measurement interval: relative humidity 5%. Furthermore, the handling of the devices including data processing was conducted in accordance to the methods and procedures as indicated in each device. (Device: dynamic steam adsorption/desorption measuring device SGA-100, manufactured by VTI).
Measuring temperature: 25° C.; drying before measurement: not done; humidity at the beginning: 5% RH; maximum humidity: 95% RH; humidity at the end: 5% RH; step: 5% RH; equilibrium standard: 0.03 wt % in 5 min; maximum equilibrated time: 180 min; sampling interval: 20 sec; data recording interval: 1 min

Series [4] has as its system L5/L6 spinal nerve ligation models. The series is described as follows: L5/L6 spinal nerve ligation model of neuropathic pain, von Frey Test. It is filed as in vivo, male SD rats. The protocol: The evaluation of an analgesic effect on neuropathic pain was performed according to the method of Kim et al. using L5/L6 spinal nerve ligation models. That is, the left L5 and L6 […] nerves of male SD rats were tightly ligated with a silk thread under pentobarbital anesthesia, and thereafter, the evaluation was performed. As the assessment of pain behavior, a von Frey Test on the plantar surface of the animals was employed (Pain, 1992, Vol. 50, p. 355-363). That is, the plantar surface of the operated limb of the nerve ligation rat was stimulated by using von Frey filaments until a withdrawal response was observed, and the lowest amount of force (g) required to elicit withdrawal response was defined as a pain threshold. The evaluation of compounds was performed in a period between 7 and 14 days after the operation in which a decrease in the threshold was stably observed. On the previous day of the evaluation of compounds, a von Frey Test was performed and the rats were grouped so as to minimize the variation in the mean value of pain threshold. Each of a solvent (vehicle) and a diluted solution obtained by diluting compound A hydrochloride as a compound A with a solvent so as to give a dose of 30 mg/kg was orally administered to rats in each group. Distilled water was used as a solvent. A pain threshold was measured at 1 hour after administration. […]

The mark [5] stands for this setting: Condition 1: 40° C., relative humidity 75%, opening, 3 months.
[6] abbreviates: Condition 2: 70° C., light shielding, sealing, 2 weeks.
Where [7] appears, read: Condition 3: 25° C., D65 (1000 lux), sealing, 2 weeks.
The mark [8] stands for this setting: 25° C., relative humidity 5 to 95%.

Values joined by “and” are separate entries in the source; they are usually repeats but may differ in a detail not shown here. Equal values may be shown once. Where a name gives a salt, the structure may show the parent alone. Read-outs that look alike come from different tables or passages of the source. Bounds are passed on as bounds.

In the case of `C1=Cc2cccc(OCC3CNCCO3)c2C1.Cl` (racemic) [Indeloxazine hydrochloride], the “Stability under normal conditions” value in series [1] (room temperature, tightly closed, light shielding, 36 months) was “stable”. For the same compound, in series [1] (stored at relative humidity 93% for 14 days at around room temperature), the “Weight increase by hygroscopicity” value is on record as “substantially no weight increase”.
As for `C1=Cc2cccc(OCC3CNCCO3)c2C1` (single isomer, unassigned; (+)) [Hydrochloride, (+)-2-[(inden-7-yloxy)methyl]morpholine], the “Quantitative Values (%) (residual ratio of the compound A)” value in series [2] (setting [5]) stood at 55%; in series [2] (setting [6]), 100%; in series [2] (setting [7]) it was 52%. Further, in series [3] (25° C., FIG. 1), the “Relative humidity from which remarkably hygroscopic” value is given as “around 75%”. The “Deliquescence accompanying weight change” value in series [3] (setting [8]) is on record as “accompanied by deliquescence”. Besides, the “Weight change(%)” value is reported as 48.5 (accompanied % in series [3] (setting [8]) and 50% in series [3] (25° C., relative humidity 5 to 95%, listed as hydrochloride of the compound A). Further, the “Relative humidity at which deliquescent” value in series [3] (room temperature) was “approximately 75%”. For the same compound, the “Effect on pain threshold of operated side paw” value in series [4] (30 mg/kg orally) is “improved the pain threshold in the operated side of paw to the same level as that in the normal paw”. Moreover, the “% Effect (recovery ratio of pain threshold)” value in series [4] (30 mg/kg, p.o., 1 hour after administration, mean ± SEM, normal side paw 100%, operated side paw 0%) was 94.5 ± 17.0 %.
In the case of `C1=Cc2cccc(OC[C@H]3CNCCO3)c2C1.O=S(=O)(O)c1ccccc1` [Benzenesulfonate (α), (R)-2-[(1H-inden-7-yloxy)methyl]morpholine benzenesulfonate], the “Quantitative Values (%) (residual ratio of the compound A)” value in series [2] (benzenesulfonate) was 101% and 100% and 94%. The “Weight change(%)” value in series [3] (setting [8]) is recorded as below 0.1%.
Take `C1=Cc2cccc(OC[C@H]3CNCCO3)c2C1.O=S(=O)(O)c1ccccc1` [Benzenesulfonate (β)]: the “Quantitative Values (%) (residual ratio of the compound A)” value in series [2] was 95% and 84% and 74%. Further, the “Weight change(%)” value in series [3] (setting [8]) is on record as 1.2%.
As for `Br.C1=Cc2cccc(OC[C@H]3CNCCO3)c2C1` [Hydrobromide (α)], the “Quantitative Values (%) (residual ratio of the compound A)” value in series [2] (setting [5]) turned out to be 98%; in series [2] (setting [6]) it was 97%; in series [2] (setting [7]), 69%. Further, the “Weight change(%)” value in series [3] (setting [8]) came out at 12.5%.
Turning to `C1=Cc2cccc(OC[C@H]3CNCCO3)c2C1.O=S(=O)(O)c1ccccc1` [benzenesulfonate], the “Weight change(%)” value in series [3] is on record as “substantially no weight change”.
